Source: patent US20240091227A1, “Use Of 2-Phenyl-6-(1H-Imidazol-1-YL) Quinazoline For Treating Neurodegenerative Diseases, Preferably Alzheimer's Disease” (ROTTAPHARM BIOTECH S.R.L., priority 2019, published 2024)
Entries after “also recorded” stand apart in the source; their conditions may differ.

What was measured:
[1] = test system: Iba1-positive microglial cells; assay: Spinal microglia activation (Iba1 immunofluorescence) in CFA inflammatory model; format: in vivo, rat; details: rats, 6 mg/kg os single administration 72 hours post-CFA, evaluated after 90 minutes
Procedure: FIG. 2 reports the results of spinal microglia activation at 72 hours following CFA injection. The quantification of microglia activation in ipsilateral L5 SC dorsal horn was determined as the number of Iba1-positive microglia, displaying a clearly swollen cell body with reduced processes, within the analyzed selected frame of the superficial laminae. Data represent the mean of 5 animals/group. Ordinary one way ANOVA followed by Dunnet's multiple comparison (**p<0.05).
Microglial cells activation was evaluated by immunofluorescence staining, measuring the expression of ionized calcium-binding adapter molecule 1 (Iba-1) in ipsilateral L5 spinal cord in complete Freund's adjuvant (CFA) model. […]
CR4056 (6 mg/kg, os) was administered 72 hours post-CFA and after 90 minutes animals were deeply anesthetized with an overdose of urethane (1.5 g·kg−1, i.p.) and then transcardially perfused with 250 mL 0.9% saline containing 1% heparin (5000 UI·mL−1), followed by 500 mL 10% formalin (i.e., 4% paraformaldehyde, Bio-Optica Spa, Milan, Italy). […] For each section, a representative image of both the ipsilateral and the contralateral dorsal horn (laminae I-III) of the L5 spinal cord was captured at 20× magnification, using consistent exposure times across all sections, and then analysed. […] For each animal (n=5 per group) 6 non-consecutive sections were analysed and results were averaged.

[2] = test system: Rats treated with scopolamine; assay: Passive avoidance in scopolamine-induced memory impairment; format: in vivo, rat
Procedure: FIG. 3 reports results of a passive avoidance test in the model of scopolamine-induced memory loss. Rats treated with scopolamine (Sco, 1 mg/kg) or physiological solution (Sal) received CR4056 10 mg/kg bid or its vehicle (MC). t student test. *p<0.05; **P<0.01 (n=6).
Scopolamine, a nonselective muscarinic receptor antagonist, produces a blocking of the activity of the muscarinic acetylcholine receptor, and the concomitant appearance of transient cognitive amnesia and electrophysiological changes, which resemble those observed in Alzheimer's disease. Therefore, scopolamine administration may be considered as a psychopharmacological model of Alzheimer's disease (Lenz R A, Psychopharmacology (Berl), 2012). Passive avoidance is a behavioural model of memory impairment.
The apparatus consisted of a two-compartment box: light and dark compartments separated by a door. The rat was placed in the center of the light compartment, with the door between two compartments closed. After 4 seconds, the door was opened and the latency time, i.e., the time taken by the rat to enter all four paws into the dark compartment was recorded.
Once the rat moved completely in the dark compartment, the door was closed and immediately a mild foot shock was delivered through the grid floor. Thus, during the initial phase the animal learned that the moving to the dark compartment had negative consequences. […]

rats [3] = assay: Irwin test (neurobehavioral changes); format: in vivo, rat; details: suprapharmacological concentrations
Description: (§1) These findings indicate that CR4056 could be a safe drug for treating neurodegenerative diseases, and, in particular, Alzheimer disease.

TNFα = TNFα gene expression in IL-1β-stimulated U373 MG astrocytoma cells (RT-PCR); format: cell-based, human; details: IL-1β 2 ng/ml
Procedure: (§2) A model of astrocytes, the human glioblastoma astrocytoma cell line U373 MG (Uppsala), was used for these experiments. Adherent cells were grown in DMEM medium supplemented with 10% FBS at 37° C. with CO2. 72 hours after plating, cells were treated for 1 h with 2-phenyl-6-(1H-imidazol-1-yl)quinazoline (CR4056) (10 μM) prepared according to EP2066653 and then stimulated with the pro-inflammatory cytokine IL-1β (2 ng/mL) for further 6 and 24 h.
(§3) At the end of incubation period, total RNA was obtained and retro-transcribed using the High-Capacity cDNA Reverse Transcription Kit (Thermo Fisher Scientific). The levels of expression of COX-2, IL-1β, IL-6 and TNFα were evaluated by RT-PCR analysis, performed using the Applied Biosystems 7500 Fast Real-Time PCR System using specific TaqMan assays and, as an endogenous control, the 18S Pre-Developed TaqMan® Assay (Thermo Fisher Scientific). The data analysis, with normalisation on 18S amplified values, was according to Thermo Fisher Scientific specific instructions for gene expression relative quantification. All individual data were the result of at least three different measurements for each sample.
(§4) Percentage of gene expression inhibition observed in U373 cells stimulated with IL-1β 2 ng/ml and exposed to 10 μM CR4056 for the indicated time.

IL-6 = IL-6 gene expression in IL-1β-stimulated U373 MG astrocytoma cells (RT-PCR); format: cell-based, human; details: IL-1β 2 ng/ml
Procedure: as §2, §3, §4

rats [4] = assay: Rotarod and open field tests (motor coordination and locomotor activity); format: in vivo, rat; details: suprapharmacological concentrations
Description: as §1

IL-1β = IL-1β gene expression in IL-1β-stimulated U373 MG astrocytoma cells (RT-PCR); format: cell-based, human; details: IL-1β 2 ng/ml
Procedure: as §2, §3, §4

- Neurobehavioral changes (Irwin test) (rats [3]): neither neurobehavioral changes
SMILES: c1ccc(-c2ncc3cc(-n4ccnc4)ccc3n2)cc1 [CR4056, 2-phenyl-6-(1H-imidazol-1-yl)quinazoline]
- Microglia activation in ipsilateral L5 spinal cord dorsal horn (Iba1-positive activated microglia) [1]: completely restored the basal conditions of microglia; also recorded: significantly reduced microglia activation
- Escape latency time, passive avoidance, sham animals ([2]; rats not treated with scopolamine, CR4056 10 mg/kg bid vs vehicle (MC)): not different from its vehicle
- Escape latency time, passive avoidance, scopolamine-treated animals ([2]; rats, scopolamine 1 mg/kg sc, CR4056 10 mg/kg bid orally): counteracted the memory impairment
- Percentage of gene expression inhibition, TNF-α (TNFα; 10 μM CR4056, 6 h): not yet modulated
- Percentage of gene expression inhibition, TNF-α (TNFα; 10 μM CR4056, 24 h): 52%
- Percentage of gene expression inhibition, IL-6 (IL-6; 10 μM CR4056, 6 h): not yet modulated
- Percentage of gene expression inhibition, IL-6 (IL-6; 10 μM CR4056, 24 h): 39%
- Impairment of motor coordination and locomotor activity (rotarod and open field tests) (rats [4]): nor impairment of motor coordination and locomotor activity
- Percentage of gene expression inhibition, IL-1β (IL-1β; 10 μM CR4056, 6 h): 20%
- Percentage of gene expression inhibition, IL-1β (IL-1β; 10 μM CR4056, 24 h): 29%
